pIC50: −log10 of the molar value.
Experiments:
[1] = molecular target: T1, mouse SSTR5 (somatostatin receptor 5) (Mus musculus, UniProt O08858); assay: HTRF cAMP antagonist assay in CHO cells stably expressing mouse SSTR5, stimulated with SST28 and forskolin; type: cell-based
T1 sequence (O08858 1-362): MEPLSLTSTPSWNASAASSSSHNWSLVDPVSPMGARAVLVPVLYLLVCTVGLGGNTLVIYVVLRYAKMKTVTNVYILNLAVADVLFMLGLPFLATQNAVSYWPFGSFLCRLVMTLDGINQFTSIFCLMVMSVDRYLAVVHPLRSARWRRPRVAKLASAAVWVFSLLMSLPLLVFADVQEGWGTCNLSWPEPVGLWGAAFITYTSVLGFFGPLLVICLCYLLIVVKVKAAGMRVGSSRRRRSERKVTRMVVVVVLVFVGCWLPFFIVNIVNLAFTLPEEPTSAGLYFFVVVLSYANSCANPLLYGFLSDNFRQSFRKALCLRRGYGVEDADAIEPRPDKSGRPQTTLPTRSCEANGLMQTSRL

[2] = molecular target: human SSTR5 (somatostatin receptor 5) (Homo sapiens, UniProt P35346); assay: HTRF cAMP antagonist assay in CHO cells stably expressing human SSTR5, stimulated with SST28 and forskolin; type: cell-based
Sequence of human SSTR5 (somatostatin receptor 5) (P35346 whole entry): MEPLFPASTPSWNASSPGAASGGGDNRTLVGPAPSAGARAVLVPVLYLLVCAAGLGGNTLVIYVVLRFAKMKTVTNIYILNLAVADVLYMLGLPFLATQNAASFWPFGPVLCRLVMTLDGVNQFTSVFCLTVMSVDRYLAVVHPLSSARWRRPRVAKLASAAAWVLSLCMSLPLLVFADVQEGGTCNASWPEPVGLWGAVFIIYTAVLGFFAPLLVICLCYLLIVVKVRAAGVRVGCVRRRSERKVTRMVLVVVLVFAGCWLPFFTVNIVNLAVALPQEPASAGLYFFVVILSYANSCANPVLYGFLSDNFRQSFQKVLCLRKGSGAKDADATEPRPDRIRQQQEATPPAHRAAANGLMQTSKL

Q: With `Cc1c(C(=O)O)ccn(C2CCN(Cc3cc(C4CC4)c(-c4ccc(F)cc4)c(F)c3OC(C)C)CC2)c1=O` [compound-1] as the molecule, how does the pIC50 [1] read?
A: Its pIC50 is 7.51.

Q: What about the pIC50 [2] of the same molecule?
A: The pIC50 was 8.01.

Reference: article PMC9803904, “Selective somatostatin receptor 5 inhibition improves hepatic insulin sensitivity” (Pharmacology Research & Perspectives, 2022)
